Laboratory results taken from patent publication US9579322B2, “Methods for treating neurologic disorders” (EIP Pharma, LLC, priority 2014, dated 2017).

System: cognitive defects in aged rats
Experiment: Morris water maze in aged rats
Format: in vivo, Fischer rats
Procedure: Altogether 60 female aged (20-24 months) and 15 young adult female Fischer Rats (2-3 months) were used for the experiment. Rats were treated with oral gavage twice-a-day until the sampling (23 days) with vehicle or VX-745 0.5, 1.5 or 4.5 mg/kg. Learning and memory deficits were analyzed with Morris water maze (MWM) one week after starting the treatment.
All animal experiments were carried out according to the National Institute of Health (NIH) guidelines for the care and use of laboratory animals, and approved by the National Animal Experiment Board, Finland. Altogether 60 female aged (20-24 months) and 15 young (2-3 months) adult female Fischer rats (Charles River, France) were used for the experiment. Animals were housed at a standard temperature (22±1° C.) and in a light-controlled environment (lights on from 7 am to 8 pm) with ad libitum access to food and water. Animals were grouped as follows: • Group 1: 15 Aged Rats treated with Vehicle p.o. BID • Group 2: 15 Aged Rats treated with VX-745 (0.5 mg/kg) p.o. BID • Group 3: 15 Aged Rats treated with VX-745 (1.5 mg/kg) p.o. BID • Group 4: 15 Aged Rats treated with VX-745 (4.5 mg/kg) p.o. BID • Group 5: 15 Young adult control rats treated with Vehicle p.o. BID Drug Delivery and Rat Identification
The rats were assigned to the treatment groups equally based on their body weight and visible platform pre-training performance to ensure that both good and poor learners were equally present in all treatment groups. The treatment was given by oral gavage twice-a-day until the sampling. Vehicle was 1% Pluronic F108 and dosing volume was 5 ml/kg. Administration of vehicles and test compounds was done at 7-9 am and 3-5 pm on the pre-testing phase. On the days of behavioral testing, the treatment was given minimum 1 hour prior to first test trial. Test compounds were formulated and stored according to the instructions provided by the sponsor. The rats were marked accordingly with permanent marker to the tail. Records were kept about treatment groups and daily treatment times.
Water maze task was originally designed by Morris et al. (J Neurosci Methods. 1984; 11: 194 47-60). Testing was performed in a large dark-colored tank (200 cm in diameter) filled with clear water at a temperature of 25.0±1.0° C. A submerged platform (square platform: 10×10 cm; 1.5 cm below water surface) was placed in the middle of the of the NW quadrant. The starting locations, which were labeled N, NE, E, SE, S, SW, W, NW, were located arbitrarily on the pool rim. The rats were lowered into the pool with their nose pointing toward the wall at one of the starting points. The release point adjacent to platform location (NW) was not used.
Before the compound treatment was started, the visible platform pre-training was performed to determine whether any non-cognitive performance impairments (e.g. visual impairments and/or swimming difficulties) were present, which might affect performance on the place or probe trials. After the visible platform pre-training was completed, the data was analyzed and the rats were assigned to the different treatment groups based on their pre-training performance. This procedure was performed to ensure that each treatment group consisted equally both good and poor performers in the cued version of the water maze task.
Acquisition training—weeks 1 (days 8-11) & 2 (days 15-18): After completion of cued trials, acquisition (place) trials were executed to determine the rat's ability to learn the spatial relationship between distant cues and the submerged escape platform which remained in the same location for all place trials. The starting points were randomized (NW is not used). The rats received four trials (15 min apart, 60 s maximum for each trial) each day for 4 days/week. Latency and path length (distance) were evaluated.
Probe trial (day 19): A single probe trial was conducted 24 hours after the last place trial to evaluate memory retention. […]

Substance: VX-745
- MWM distance at day 17 (1.5 mg/kg p.o. BID versus vehicle-treated aged rats, p=0.0.019): statistically significant better performance
- MWM change in latency from first test day to last test day (1.5 mg/kg p.o. BID versus vehicle-treated aged rats, p=0.007): performed significantly better
- MWM change in distance from first test day to last test day (1.5 mg/kg p.o. BID versus vehicle-treated aged rats, p=0.012): performed significantly better
- MWM latency at day 17 (1.5 mg/kg p.o. BID versus vehicle-treated aged rats, p=0.013): statistically significant better performance
- MWM latency and distance, comparison of dose groups (1.5 mg/kg p.o. BID, about equal to young vehicle-treated rats on Day 17): greatest effect
- MWM swim time and distance over sequential testing (VX-745-treated aged rats, p.o. BID): greater progressive shortening of swim time and distance
- MWM probe trial parameters (day 19) (time in target quadrant and annulus, platform crosses): no positive or negative effects
